Measurements: patent publication US4904682A, “Treating mycoses with triazolylalkanols” (Bayer Aktiengesellschaft, priority 1987, dated 1990)
≈ marks a conversion by molar mass, not a printed value.

How the values were obtained:
Trichophyton mentagr. = experiment: Antimycotic in vitro activity, serial dilution test (MIC); type: cell-based, Trichophyton mentagrophytes; conditions: Sabouraud's test medium, 28-37° C., 96 hours, read-out: MIC values in μg/ml of nutrient medium
Method: (§1) The in vitro tests were carried out in a serial dilution test using bacterial inocula of, on average, 5×10^3 to 10^4 bacteria/ml of substrate. Nutrients used were (a) for Dermatophytes and Hyphomycetes: Sabouraud's test medium (b) for yeasts: meat extract/dextrose broth. The incubation temperature was 28° C. to 37° C., and the incubation period was 24 to 96 hours for yeasts and 96 hours for Dermatophytes and Hyphomycetes.

Candida albicans = experiment: as above; type: cell-based; conditions: meat extract/dextrose broth, 28-37° C., 24 to 96 hours, read-out: MIC values in μg/ml of nutrient medium
Method: as §1

Aspergillus fumigatus = experiment: as above; type: cell-based; conditions: Sabouraud's test medium, 28-37° C., 96 hours, read-out: MIC values in μg/ml of nutrient medium
Method: as §1

Microsporum canis = experiment: as above; type: cell-based; conditions: Sabouraud's test medium, 28-37° C., 96 hours, read-out: MIC values in μg/ml of nutrient medium
Method: as §1

Torulopsis glabrata = experiment: as above; type: cell-based; conditions: Nakaseomyces glabratus, meat extract/dextrose broth, 28-37° C., 24 to 96 hours, read-out: MIC values in μg/ml of nutrient medium
Method: as §1

[1] = system: Dermatophytes, Hyphomycetes and yeasts; experiment: Antimycotic in vitro activity, serial dilution test (overall statement); type: cell-based; conditions: in words
Method: as §1

Candida = experiment: Antimycotic in vivo activity (oral) in mouse candidiasis; set-up: species or system Mice of the SPF-CF1 type; conditions: in words, 25-100 mg/kg
Method: Mice of the SPF-CF1 type are intravenously inoculated with 1-2×10^6 logarithmically growing Candida cells, which have been suspended in physical logical saline solution. One hour before and seven hours after infection, the animals are orally treated with 25-100 mg/kg of body weight of the preparation in each case. Result Untreated animals died 3 to 6 days post infection. The survival rate on the 6th day post infection was about 5% in untreated control animals.

| MIC (Trichophyton mentagr.) | MIC (Candida albicans) | MIC (Aspergillus fumigatus) | MIC (Microsporum canis) | MIC (Torulopsis glabrata) | SMILES | antimycotic activity in vitro [1] | action in mouse candidiasis compared with compounds (A) and (B) (Candida) |
| --- | --- | --- | --- | --- | --- | --- | --- |
| < 1 µg/mL | 2 µg/mL (≈ 5.52 µM) | 2 µg/mL (≈ 5.52 µM) | < 1 µg/mL | 16 µg/mL (≈ 44.1 µM) | CC(C)(C#N)C(O)(COc1ccc(-c2ccccc2)cc1)Cn1cncn1 (stereo not drawn) [Compound 7] | good antimycotic activity | – |
| 8 µg/mL (≈ 23.7 µM) | 4 µg/mL (≈ 11.9 µM) | 8 µg/mL (≈ 23.7 µM) | – | 4 µg/mL (≈ 11.9 µM) | CC(C)(C#N)C(O)(CSc1ccc(Cl)cc1)Cn1cncn1 (stereo not drawn) [Compound 5] | good antimycotic activity | – |

Continued, compound first:

| SMILES | MIC (Trichophyton mentagr.) | MIC (Candida albicans) | MIC (Aspergillus fumigatus) | MIC (Microsporum canis) | MIC (Torulopsis glabrata) | antimycotic activity in vitro [1] | action in mouse candidiasis compared with compounds (A) and (B) (Candida) |
| --- | --- | --- | --- | --- | --- | --- | --- |
| CC(C)(C#N)C(O)(CSc1ccc(Br)cc1)Cn1cncn1 (stereo not drawn) [Compound 4] | < 1 µg/mL | 8 µg/mL (≈ 21 µM) | 4 µg/mL (≈ 10.5 µM) | 16 µg/mL (≈ 42 µM) | 8 µg/mL (≈ 21 µM) | good antimycotic activity | – |
| CC(C)(C#N)C(O)(CCc1ccc(Cl)cc1)Cn1cncn1 (stereo not drawn) [Compound 2] | < 1 µg/mL | 16 µg/mL (≈ 50.2 µM) | 16 µg/mL (≈ 50.2 µM) | 16 µg/mL (≈ 50.2 µM) | 16 µg/mL (≈ 50.2 µM) | good antimycotic activity | – |
| CC(C)(C#N)C(O)(COc1ccc(Cl)cc1)Cn1cncn1 (stereo not drawn) [Compound 8] | – | – | – | – | – | – | better action than the compounds (A) and (B) |
